# Data as given in US12552771B2, “Carboxylic acid containing azetidinyl compounds for the treatment of neurodegenerative diseases” (Celgene Corporation, priority 2021, dated 2026).
# Molecular target: T1, S1P5 receptors (Homo sapiens, UniProt Q9H228)
# T1 construct: expressed in transfected cells; host or cells: CHO cells (membranes)
# Assay: [35S]-GTPγS binding assay with CHO-S1P5 receptor membranes
# Format: biochemical
# Settings: membranes of CHO cells expressing recombinant S1P5 receptors; measure of S1P5 agonism
# Procedure: CHO cells expressing recombinant S1P5 receptors were cultured in 500 cm^2 culture trays and, once confluent, rinsed and detached with cell-lifting buffer (10 mM HEPES, 154 mM NaCl, 6.85 mM EDTA, pH 7.4). Cells were then pelleted by centrifugation, resuspended, and homogenized in membrane preparation buffer (10 mM HEPES and 10 mM EDTA, pH 7.4) using a Polytron PT 1200E homogenizer (Kinematica, Luzern, Switzerland). Cellular proteins were pelleted by centrifugation at 48,000×g at 4° C. for 30 minutes. The resulting supernatant was discarded, and the pellet was re-suspended again in membrane preparation buffer, homogenized for a second time, and then centrifuged again as described above. The final cellular protein pellet was suspended in ice cold resuspension buffer (10 mM HEPES and 0.1 mM EDTA, pH 7.4), divided into aliquots, and stored at −80° C. until use.
# Functional binding assays for [^35]-GTPγS were performed in 96-well non-binding surface plates with a final volume of 200 μL. The test compounds were serially diluted in DMSO and added to assay plates using a Tecan D300E digital printer with a total volume of […]. The control sphingosine-1-phosphate (SiP) was prepared separately by preparing a 400 μM stock solution from a 100 nmol pellet of SiP in 10 mM Na2CO3 with 2% […]. The serial dilution of SiP was done using complete assay buffer (20 mM HEPES, 10 mM MgCl2, 100 mM NaCl, 1 mM EDTA, 0.1% fatty acid free bovine serum albumin (BSA), and 30 μg/mL saponin, pH 7.4) and transferred to wells already containing 0.4 μL DMSO. All the wells were then loaded to a total volume of 40 μL of complete assay buffer, except the non-specific binding (NSB) wells. For NSB wells, 40 μL/well of 50 μM GTPγS (Sigma Aldrich, cat #G8634, St. Louis, MO) was added to wells containing 0.4 μL of DMSO. The assay was started by the addition of 120 μL/well of CHO-S1P receptor membrane solution containing 40 μg/mL of membrane protein, 16.67 μM guanosine diphosphate (GDP; Sigma Aldrich, cat #G7127, St. Louis, MO), and 2.5 mg/mL of WGA PVT SPA beads in complete buffer. Assay plates were then sealed and incubated at room temperature with gentle agitation for 30 minutes. Next, 40 μL/well of 1 nM of [^35]-GTPγS (PerkinElmer, cat #NEG030X250UC, Waltham, MA) in basic assay buffer (20 mM HEPES, 10 mM MgCl2, 100 mM NaCl, and 1 mM EDTA, pH7.4) was added to the assay plates to yield a final concentration of 200 pM and the plates were further incubated for 40 minutes at room temperature with gentle agitation. The assay was terminated by centrifugation of the plates at 1000 rpm for 3 minutes using an Eppendorf 5810R centrifuge (Eppendorf, Hamburg, Germany) and G protein bound radioactivity was quantitated using a MicroBeta2 microplate scintillation counter (PerkinElmer, Waltham, MA). As G protein bound radioactivity directly correlates to receptor activation and coupling to the G protein, this assay is a measure of S1P5 agonism.
# T1 sequence (Q9H228 whole entry): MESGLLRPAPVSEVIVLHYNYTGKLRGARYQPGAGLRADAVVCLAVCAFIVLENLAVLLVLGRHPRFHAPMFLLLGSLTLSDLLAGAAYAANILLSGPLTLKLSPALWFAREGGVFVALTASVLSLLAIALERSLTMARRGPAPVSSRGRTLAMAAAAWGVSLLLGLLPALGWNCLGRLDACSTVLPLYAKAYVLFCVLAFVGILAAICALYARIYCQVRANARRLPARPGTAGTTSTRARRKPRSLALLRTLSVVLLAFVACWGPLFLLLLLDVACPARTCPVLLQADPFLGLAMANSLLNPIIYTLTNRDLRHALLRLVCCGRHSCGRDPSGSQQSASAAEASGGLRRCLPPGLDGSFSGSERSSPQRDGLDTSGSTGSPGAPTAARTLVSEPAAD
row,Compound,EC50
1,"CC(C)c1cc(C2CN(c3c(Cl)cccc3Cl)C2)cc(C(C)C)c1CN1CCC(C(=O)O)CC1 [Compound 53, 1-(4-(1-(2,6-dichlorophenyl)azetidin-3-yl)-2,6-diisopropylbenzyl)piperidine-4-carboxylic acid]",100 to 1000 nM
2,"O=C(O)C1CCN(Cc2ccc(C3CN(c4c(Cl)cccc4Cl)C3)c3ccccc23)CC1 [Compound 54, 1-((4-(1-(2,6-dichlorophenyl)azetidin-3-yl)naphthalen-1-yl)methyl)-piperidine-4-carboxylic acid]",≤ 10 nM
3,"CCc1cc(C2CN(c3c(Cl)cccc3Cl)C2)cc(C)c1CN1CCC(C(=O)O)CC1 [Compound 55, 1-(4-(1-(2,6-dichlorophenyl)azetidin-3-yl)-2-ethyl-6-methylbenzyl)-piperidine-4-carboxylic acid]",≤ 10 nM
4,"O=C(O)C1CCN(Cc2ccc(C3CN(c4c(Cl)cccc4Cl)C3)cc2C2CC2)CC1 [Compound 56, 1-(2-cyclopropyl-4-(1-(2,6-dichlorophenyl)azetidin-3-yl)benzyl)piperidine-4-carboxylic acid]",≤ 10 nM
5,"Cc1cc(C2CN(c3c(Cl)cccc3Cl)C2)cc(C2CC2)c1CN1CCC(C(=O)O)CC1 [Compound 57, 1-(2-cyclopropyl-4-(1-(2,6-dichlorophenyl)azetidin-3-yl)-6-methylbenzyl)-piperidine-4-carboxylic acid]",≤ 10 nM
6,"Cc1cc(C2CN(c3c(Cl)cccc3Cl)C2)cc(C#N)c1CN1CCC(C(=O)O)CC1 [Compound 58, 1-(2-cyano-4-(1-(2,6-dichlorophenyl)azetidin-3-yl)-6-methylbenzyl)-piperidine-4-carboxylic acid]",10 to 100 nM
7,"Cc1cc(C2CN(c3c(Cl)cccc3Cl)C2)cc(C)c1CN1CC(C(=O)O)C1 [Compound 59, 1-(4-(1-(2,6-dichlorophenyl)azetidin-3-yl)-2,6-dimethylbenzyl)azetidine-3-carboxylic acid]",≤ 10 nM
8,"Cc1cc(C2CN(c3c(Cl)cccc3Cl)C2)cc(C)c1CN1CC[C@@H](C(=O)O)C1 [Compound 60, (R)-1-(4-(1-(2,6-dichlorophenyl)azetidin-3-yl)-2,6-dimethylbenzyl) pyrrolidine-3-carboxylic acid]",≤ 10 nM
9,"Cc1cc(C2CN(c3c(Cl)cccc3Cl)C2)cc(C)c1CN1CCC(C(=O)O)C(C)C1 (centres unmarked) [Compound 61, 1-(4-(1-(2,6-dichlorophenyl)azetidin-3-yl)-2,6-dimethylbenzyl)-3-methyl-piperidine-4-carboxylic acid]",≤ 10 nM
10,"Cc1cc(C2CN(c3c(Cl)cccc3Cl)C2)cc(C)c1CN1CC[C@H](C(=O)O)C1 [Compound 62, (S)-1-(4-(1-(2,6-dichlorophenyl)azetidin-3-yl)-2,6-dimethylbenzyl)-pyrrolidine-3-carboxylic acid]",≤ 10 nM
11,"Cc1cc(C2CN(c3c(Cl)cccc3Cl)C2)cc(C)c1CN1CCC(C(=O)O)CC1C (centres unmarked) [Compound 63, 1-(4-(1-(2,6-dichlorophenyl)azetidin-3-yl)-2,6-dimethylbenzyl)-2-methyl-piperidine-4-carboxylic acid]",10 to 100 nM
12,"Cc1cc(C2CN(c3c(Cl)cccc3Cl)C2)cc(C)c1CN1CCC(C(=O)O)C(F)C1 (centres unmarked) [Compound 64, 1-(4-(1-(2,6-dichlorophenyl)azetidin-3-yl)-2,6-dimethylbenzyl)-3-fluoro-piperidine-4-carboxylic acid]",≤ 10 nM
13,"Cc1cc(C2CN(c3c(Cl)cccc3Cl)C2)cc(C)c1CN1CCC(C(=O)O)CC1(C)C (centres unmarked) [Compound 65, 1-(4-(1-(2,6-dichlorophenyl)azetidin-3-yl)-2,6-dimethylbenzyl)-2,2-dimethylpiperidine-4-carboxylic acid]",10 to 100 nM
14,"Cc1cc(C2CN(c3c(C)cccc3F)C2)cc(C)c1CN1CCC(C(=O)O)CC1 [Compound 66, 1-(4-(1-(2-fluoro-6-methylphenyl)azetidin-3-yl)-2,6-dimethylbenzyl)-piperidine-4-carboxylic acid]",≤ 10 nM
15,"Cc1cc(C2CN(c3c(C)cccc3Cl)C2)cc(C)c1CN1CCC(C(=O)O)CC1 [Compound 67, 1-(4-(1-(2-chloro-6-methylphenyl)azetidin-3-yl)-2,6-dimethylbenzyl)-piperidine-4-carboxylic acid]",≤ 10 nM
16,"CCc1cccc(C)c1N1CC(c2cc(C)c(CN3CCC(C(=O)O)CC3)c(C)c2)C1 [Compound 68, 1-(4-(1-(2-ethyl-6-methylphenyl)azetidin-3-yl)-2,6-dimethylbenzyl)-piperidine-4-carboxylic acid]",≤ 10 nM
17,"CCc1cccc(CC)c1N1CC(c2cc(C)c(CN3CCC(C(=O)O)CC3)c(C)c2)C1 [Compound 69, 1-(4-(1-(2,6-diethylphenyl)azetidin-3-yl)-2,6-dimethylbenzyl)piperidine-4-carboxylic acid]",≤ 10 nM
18,"Cc1cc(C2CN(c3ccccc3C3CC3)C2)cc(C)c1CN1CCC(C(=O)O)CC1 [Compound 70, 1-(4-(1-(2-cyclopropylphenyl)azetidin-3-yl)-2,6-dimethylbenzyl)piperidine-4-carboxylic acid]",10 to 100 nM
19,"Cc1cc(C2CN(c3c(C)cccc3C3CC3)C2)cc(C)c1CN1CCC(C(=O)O)CC1 [Compound 71, 1-(4-(1-(2-cyclopropyl-6-methylphenyl)azetidin-3-yl)-2,6-dimethylbenzyl)-piperidine-4-carboxylic acid]",≤ 10 nM
20,"Cc1cc(C2CN(c3c(C)cccc3C(F)F)C2)cc(C)c1CN1CCC(C(=O)O)CC1 [Compound 72, 1-(4-(1-(2-(difluoromethyl)-6-methylphenyl)azetidin-3-yl)-2,6-dimethyl-benzyl)piperidine-4-carboxylic acid]",10 to 100 nM
21,"Cc1cc(C2CN(c3c(C)cccc3C(F)(F)F)C2)cc(C)c1CN1CCC(C(=O)O)CC1 [Compound 73, 1-(2,6-dimethyl-4-(1-(2-methyl-6-(trifluoromethyl)phenyl)azetidin-3-yl)-benzyl)piperidine-4-carboxylic acid]",≤ 10 nM
22,"Cc1cc(C2CN(c3c(C)cccc3C#N)C2)cc(C)c1CN1CCC(C(=O)O)CC1 [Compound 74, 1-(4-(1-(2-cyano-6-methylphenyl)azetidin-3-yl)-2,6-dimethylbenzyl)-piperidine-4-carboxylic acid]",≤ 10 nM
23,"Cc1cc(C2CN(c3cccc4ccccc34)C2)cc(C)c1CN1CCC(C(=O)O)CC1 [Compound 75, 1-(2,6-dimethyl-4-(1-(naphthalen-1-yl)azetidin-3-yl)benzyl)piperidine-4-carboxylic acid]",100 to 1000 nM
24,"Cc1cc(C2CN(c3c(Cl)cccc3Cl)C2)cnc1CN1CCC(C(=O)O)CC1 [Compound 76, 1-((5-(1-(2,6-dichlorophenyl)azetidin-3-yl)-3-methylpyridin-2-yl)methyl)-piperidine-4-carboxylic acid]",10 to 100 nM
25,"Cc1cc(CN2CCC(C(=O)O)CC2)ncc1C1CN(c2c(Cl)cccc2Cl)C1 [Compound 77, 1-((5-(1-(2,6-dichlorophenyl)azetidin-3-yl)-4-methylpyridin-2-yl)methyl)-piperidine-4-carboxylic acid]",100 to 1000 nM
26,"Cc1cc(C2CN(c3c(Cl)cccc3Cl)C2)ncc1CN1CCC(C(=O)O)CC1 [Compound 78, 1-((6-(1-(2,6-dichlorophenyl)azetidin-3-yl)-4-methylpyridin-3-yl)methyl)-piperidine-4-carboxylic acid]",100 to 1000 nM
